These are literature values, as cited in patent US8114906B2, “Essential fatty acids in the treatment and/or inhibition of depression in patients with coronary heart or artery disease” (Abbott Products GmbH, priority 2004, dated 2012).

Series [1] relates to treatment resistant depression. Conditions: EPA added to treatment.
For series [2], the system named is depression in post-myocardial patients. Conditions: one study.

Turning to `CC/C=C\C/C=C\C/C=C\C/C=C\C/C=C\CCCC(=O)OCC` [EPA, eicosapentanoic acid ethyl ester], in series [1], the “symptoms of treatment resistant depression” value is “symptoms remission”.

Consider `CN[C@H]1CC[C@@H](c2ccc(Cl)c(Cl)c2)c2ccccc21` [sertraline], for which the “effects in post-myocardial patients with concomitant depression” value in series [2] was “beneficial effects”.
